Tests used:
BaF3 [1] = assay: cells; details: Mus musculus, BaF3, 72 h
BaF3 [2] = assay: cells; details: Mus musculus, BaF3, 72 h; remark: listed apart in the source
U-937 = assay: cells; details: Homo sapiens, U-937, 72 h
BaF3 [3] = assay: cells; details: Mus musculus, BaF3, 72 h; remark: listed apart in the source
BaF3 [4] = assay: cells; details: Mus musculus, BaF3, 72 h; remark: listed apart in the source
Description: Antiproliferative activity against mouse BaF3 parent cell measured after 72 hrs by CCK-8 assay

[5] = biological target: T1, Tyrosine-protein kinase JAK3 (Homo sapiens, UniProt P52333)
T1 sequence (P52333 whole entry): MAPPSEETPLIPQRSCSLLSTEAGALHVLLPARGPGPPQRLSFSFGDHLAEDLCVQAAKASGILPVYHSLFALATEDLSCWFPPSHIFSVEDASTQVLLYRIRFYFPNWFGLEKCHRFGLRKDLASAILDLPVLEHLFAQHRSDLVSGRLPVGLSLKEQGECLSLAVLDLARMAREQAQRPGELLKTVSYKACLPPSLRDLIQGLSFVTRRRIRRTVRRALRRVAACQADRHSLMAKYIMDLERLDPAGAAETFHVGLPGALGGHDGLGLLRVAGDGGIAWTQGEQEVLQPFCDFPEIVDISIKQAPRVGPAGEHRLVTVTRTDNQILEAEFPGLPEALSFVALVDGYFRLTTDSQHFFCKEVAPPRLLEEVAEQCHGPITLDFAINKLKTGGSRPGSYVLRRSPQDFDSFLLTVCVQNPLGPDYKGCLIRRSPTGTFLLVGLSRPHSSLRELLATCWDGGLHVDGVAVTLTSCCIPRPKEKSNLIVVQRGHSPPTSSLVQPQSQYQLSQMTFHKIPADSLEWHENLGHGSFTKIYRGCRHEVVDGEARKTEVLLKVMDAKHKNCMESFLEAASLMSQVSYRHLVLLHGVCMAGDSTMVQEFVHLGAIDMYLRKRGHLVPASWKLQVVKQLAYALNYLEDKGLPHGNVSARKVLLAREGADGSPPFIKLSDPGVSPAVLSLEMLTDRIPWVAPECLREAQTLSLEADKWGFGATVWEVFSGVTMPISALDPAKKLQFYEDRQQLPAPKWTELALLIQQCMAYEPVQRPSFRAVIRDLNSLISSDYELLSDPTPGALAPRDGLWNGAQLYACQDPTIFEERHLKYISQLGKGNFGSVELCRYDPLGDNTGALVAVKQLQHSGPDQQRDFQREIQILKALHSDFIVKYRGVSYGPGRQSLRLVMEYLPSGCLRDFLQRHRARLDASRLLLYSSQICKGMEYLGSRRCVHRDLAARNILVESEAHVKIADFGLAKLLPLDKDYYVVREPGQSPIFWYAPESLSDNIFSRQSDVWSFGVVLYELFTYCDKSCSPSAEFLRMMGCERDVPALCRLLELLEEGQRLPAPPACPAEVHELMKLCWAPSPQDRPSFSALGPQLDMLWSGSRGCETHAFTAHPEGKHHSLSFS
Description: Inhibition of GST tagged recombinant human JAK3 expressed in baculovirus infection system by FRET assay

[6] = biological target: Tyrosine-protein kinase JAK2 (Homo sapiens, UniProt O60674)
Tyrosine-protein kinase JAK2, sequence (O60674 whole entry): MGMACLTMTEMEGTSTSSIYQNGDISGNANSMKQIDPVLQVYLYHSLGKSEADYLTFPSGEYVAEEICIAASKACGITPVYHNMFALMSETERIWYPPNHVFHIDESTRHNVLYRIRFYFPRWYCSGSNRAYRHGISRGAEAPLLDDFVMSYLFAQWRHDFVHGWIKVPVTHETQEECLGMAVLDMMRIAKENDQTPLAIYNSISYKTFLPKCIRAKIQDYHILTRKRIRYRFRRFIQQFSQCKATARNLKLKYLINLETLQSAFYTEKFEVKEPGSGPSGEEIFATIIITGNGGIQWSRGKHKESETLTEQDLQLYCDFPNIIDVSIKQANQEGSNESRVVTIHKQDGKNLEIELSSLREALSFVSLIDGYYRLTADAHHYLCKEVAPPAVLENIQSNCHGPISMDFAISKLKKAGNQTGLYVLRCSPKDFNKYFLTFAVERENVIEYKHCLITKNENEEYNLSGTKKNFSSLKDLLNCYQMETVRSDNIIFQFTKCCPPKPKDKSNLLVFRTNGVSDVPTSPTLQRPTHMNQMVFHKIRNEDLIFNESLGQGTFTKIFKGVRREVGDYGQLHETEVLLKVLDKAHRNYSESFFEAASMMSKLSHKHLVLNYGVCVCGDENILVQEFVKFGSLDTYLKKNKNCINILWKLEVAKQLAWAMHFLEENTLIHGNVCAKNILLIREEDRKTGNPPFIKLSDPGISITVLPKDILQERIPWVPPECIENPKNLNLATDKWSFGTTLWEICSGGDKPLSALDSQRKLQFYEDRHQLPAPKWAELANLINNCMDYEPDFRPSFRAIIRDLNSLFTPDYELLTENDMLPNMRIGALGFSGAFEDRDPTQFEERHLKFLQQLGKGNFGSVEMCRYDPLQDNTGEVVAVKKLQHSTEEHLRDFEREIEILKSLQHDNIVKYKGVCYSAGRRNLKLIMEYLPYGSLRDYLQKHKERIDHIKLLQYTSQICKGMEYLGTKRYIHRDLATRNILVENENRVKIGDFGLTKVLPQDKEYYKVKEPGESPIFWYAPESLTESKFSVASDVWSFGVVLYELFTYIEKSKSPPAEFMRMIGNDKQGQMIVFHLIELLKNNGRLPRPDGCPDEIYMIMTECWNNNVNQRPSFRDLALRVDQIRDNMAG
Description: Inhibition of GST tagged recombinant human JAK2 expressed in baculovirus infection system by FRET assay

[7] = biological target: Tyrosine-protein kinase JAK1 (Homo sapiens, UniProt P23458)
Tyrosine-protein kinase JAK1, sequence (P23458 whole entry): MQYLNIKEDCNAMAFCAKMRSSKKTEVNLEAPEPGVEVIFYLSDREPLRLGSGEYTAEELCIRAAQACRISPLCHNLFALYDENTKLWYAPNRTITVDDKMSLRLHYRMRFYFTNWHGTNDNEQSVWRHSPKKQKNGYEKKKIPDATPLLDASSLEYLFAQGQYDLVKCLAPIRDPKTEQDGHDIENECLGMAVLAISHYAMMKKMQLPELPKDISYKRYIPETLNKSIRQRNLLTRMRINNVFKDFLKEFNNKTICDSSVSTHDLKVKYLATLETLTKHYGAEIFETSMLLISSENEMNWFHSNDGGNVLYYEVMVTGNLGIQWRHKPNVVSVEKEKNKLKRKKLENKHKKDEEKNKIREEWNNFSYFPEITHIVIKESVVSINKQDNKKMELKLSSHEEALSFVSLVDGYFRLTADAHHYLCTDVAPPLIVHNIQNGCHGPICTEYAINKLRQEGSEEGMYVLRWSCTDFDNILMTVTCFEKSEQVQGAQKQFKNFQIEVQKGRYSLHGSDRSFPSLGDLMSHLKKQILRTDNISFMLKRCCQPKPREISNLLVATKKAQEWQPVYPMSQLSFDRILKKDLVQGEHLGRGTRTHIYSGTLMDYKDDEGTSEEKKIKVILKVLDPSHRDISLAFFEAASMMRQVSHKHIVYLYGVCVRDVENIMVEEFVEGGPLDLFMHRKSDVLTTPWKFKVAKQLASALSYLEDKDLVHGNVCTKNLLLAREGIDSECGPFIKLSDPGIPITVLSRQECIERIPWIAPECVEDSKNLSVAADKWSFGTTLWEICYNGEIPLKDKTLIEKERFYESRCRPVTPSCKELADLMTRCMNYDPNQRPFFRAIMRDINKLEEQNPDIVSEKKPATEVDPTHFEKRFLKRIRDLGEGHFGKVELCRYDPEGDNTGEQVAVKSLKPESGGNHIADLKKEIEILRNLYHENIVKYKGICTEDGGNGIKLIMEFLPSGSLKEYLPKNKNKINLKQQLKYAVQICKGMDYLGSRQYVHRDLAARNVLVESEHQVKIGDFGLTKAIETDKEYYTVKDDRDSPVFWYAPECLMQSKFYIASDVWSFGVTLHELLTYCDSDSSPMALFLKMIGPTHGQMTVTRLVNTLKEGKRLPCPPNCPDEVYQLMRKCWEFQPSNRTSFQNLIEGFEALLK

[8] = biological target: Non-receptor tyrosine-protein kinase TYK2 (Homo sapiens, UniProt P29597)
Non-receptor tyrosine-protein kinase TYK2, sequence (P29597 whole entry): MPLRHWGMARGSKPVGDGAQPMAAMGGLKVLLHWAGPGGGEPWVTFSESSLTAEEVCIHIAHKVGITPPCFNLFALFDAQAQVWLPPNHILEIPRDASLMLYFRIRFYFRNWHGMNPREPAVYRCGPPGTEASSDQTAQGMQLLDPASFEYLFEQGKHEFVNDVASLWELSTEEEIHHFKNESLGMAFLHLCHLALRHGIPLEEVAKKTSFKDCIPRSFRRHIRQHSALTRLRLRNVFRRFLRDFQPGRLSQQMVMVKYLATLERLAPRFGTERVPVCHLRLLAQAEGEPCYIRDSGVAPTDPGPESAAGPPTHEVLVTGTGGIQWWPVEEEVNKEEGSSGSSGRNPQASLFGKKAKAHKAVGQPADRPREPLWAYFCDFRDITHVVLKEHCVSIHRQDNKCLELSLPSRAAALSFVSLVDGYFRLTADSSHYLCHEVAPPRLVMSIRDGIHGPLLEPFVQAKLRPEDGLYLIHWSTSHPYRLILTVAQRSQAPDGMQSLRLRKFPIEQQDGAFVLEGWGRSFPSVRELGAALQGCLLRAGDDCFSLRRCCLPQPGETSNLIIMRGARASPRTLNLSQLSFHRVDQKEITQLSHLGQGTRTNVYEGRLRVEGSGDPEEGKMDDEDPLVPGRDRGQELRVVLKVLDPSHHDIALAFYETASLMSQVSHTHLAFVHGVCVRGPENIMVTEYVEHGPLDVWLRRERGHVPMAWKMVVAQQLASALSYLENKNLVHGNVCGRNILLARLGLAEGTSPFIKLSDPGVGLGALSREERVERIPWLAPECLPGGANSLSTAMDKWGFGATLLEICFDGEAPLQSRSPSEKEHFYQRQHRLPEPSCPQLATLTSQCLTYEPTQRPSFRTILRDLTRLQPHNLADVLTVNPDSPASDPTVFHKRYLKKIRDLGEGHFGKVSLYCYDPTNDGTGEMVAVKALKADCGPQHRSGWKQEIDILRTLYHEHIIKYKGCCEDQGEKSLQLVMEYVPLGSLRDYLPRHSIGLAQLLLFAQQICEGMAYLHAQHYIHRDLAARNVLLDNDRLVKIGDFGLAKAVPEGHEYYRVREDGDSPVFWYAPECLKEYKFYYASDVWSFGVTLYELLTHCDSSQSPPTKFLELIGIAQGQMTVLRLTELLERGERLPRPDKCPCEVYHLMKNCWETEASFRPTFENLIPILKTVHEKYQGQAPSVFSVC
Description: Inhibition of human TYK2 by FRET assay

[9] = Half life in 12 hr fasted SPF Sprague-Dawley rat at 15 mg/kg, po upon 2 hrs fasting post-administration measured upto 24 hrs; type: ADME, organism-based; details: in vivo
[10] = Oral bioavailability in 12 hr fasted SPF Sprague-Dawley rat at 15 mg/kg upon 2 hrs fasting post-administration measured upto 24 hrs; type: ADME, organism-based; details: in vivo
[11] = AUC(0 to infinity) in 12 hr fasted SPF Sprague-Dawley rat at 5 mg/kg, iv upon 2 hrs fasting post-administration measured upto 24 hrs; type: ADME, organism-based; design: dose 5 mg/kg, time < 24 hrs, route iv; details: in vivo
[12] = Cmax in 12 hr fasted SPF Sprague-Dawley rat at 15 mg/kg, po upon 2 hrs fasting post-administration measured upto 24 hrs; type: ADME, organism-based; design: time < 24 hrs, dose 15 mg/kg, route po; details: in vivo
[13] = Half life in 12 hr fasted SPF Sprague-Dawley rat at 5 mg/kg, iv upon 2 hrs fasting post-administration measured upto 24 hrs; type: ADME, organism-based; details: in vivo
[14] = Cmax in 12 hr fasted SPF Sprague-Dawley rat at 5 mg/kg, iv upon 2 hrs fasting post-administration measured upto 24 hrs; type: ADME, organism-based; design: dose 5 mg/kg, time < 24 hrs, route iv; details: in vivo
[15] = AUC(0 to infinity) in 12 hr fasted SPF Sprague-Dawley rat at 15 mg/kg, po upon 2 hrs fasting post-administration upto 24 hrs; type: ADME, organism-based; design: dose 15 mg/kg, time < 24 hrs, route po; details: in vivo
[16] = Metabolic stability in rat liver microsome assessed as half life preincubated for 5 mins followed by NADPH addition measured upto 45 mins by LC/MS analysis; type: ADME; details: liver microsomes, time < 50 min
[17] = Clearance in 12 hr fasted SPF Sprague-Dawley rat at 5 mg/kg, iv upon 2 hrs fasting post-administration measured upto 24 hrs; type: ADME, organism-based; details: in vivo

SMILES	IC50 (BaF3 [1])	IC50 (BaF3 [2])	IC50 (U-937)	IC50 (BaF3 [3])	IC50 (BaF3 [4])	IC50 [5]	other results
C=CC(=O)N1C[C@H](Nc2ncnc3[nH]ccc23)CC[C@@H]1C [RITLECITINIB]	> 10000 nM	> 10000 nM	19.5 nM	28.1 nM	> 10000 nM	–	–
C=CC(=O)Nc1cc(Nc2ncc(Cl)c(O[C@@H]3CO[C@H]4[C@@H]3OC[C@H]4OCC)n2)ccc1N(C)CCN(C)C	313 nM	137 nM	30 nM	108 nM	161 nM	–	–
C=CC(=O)Nc1cc(Nc2ncc(Cl)c(O[C@@H]3CO[C@H]4[C@@H]3OC[C@H]4F)n2)ccc1N(C)CCN(C)C	461 nM	416 nM	50.3 nM	46.4 nM	519 nM	1.3 nM	–
C=CC(=O)Nc1cccc(Nc2ncc(Cl)c(O[C@@H]3CO[C@H]4[C@@H]3OC[C@H]4O)n2)c1	–	–	–	–	–	1.2 nM	IC50 [6]: 1400 nM; IC50 [7]: 556 nM; IC50 [8]: 94 nM
C=CC(=O)Nc1cc(Nc2ncc(Cl)c(O[C@@H]3CO[C@H]4[C@@H]3OC[C@@H]4F)n2)ccc1N(C)CCN(C)C	435 nM	418 nM	40.7 nM	88.6 nM	476 nM	–	–
CN1CCN(C2CCN(c3ccc(Nc4ncc(Cl)c(O[C@@H]5CO[C@H]6[C@@H]5OC[C@H]6O)n4)cc3Cl)CC2)CC1	> 10000 nM	> 10000 nM	–	1650 nM	1380 nM	–	–
C=CC(=O)Nc1cc(Nc2ncc(Cl)c(O[C@@H]3CO[C@H]4[C@@H]3OC[C@H]4O)n2)ccc1N1CCC(N2CCN(C)CC2)CC1	122 nM	46.3 nM	35.9 nM	20.1 nM	40.4 nM	1.8 nM	IC50 [6]: 1030 nM; IC50 [7]: 1540 nM; IC50 [8]: 369 nM
C=CC(=O)Nc1cc(Nc2ncc(Cl)c(O[C@@H]3CO[C@H]4[C@@H]3OCC4(F)F)n2)ccc1N(C)CCN(C)C	180 nM	188 nM	33.8 nM	56.4 nM	214 nM	1.2 nM	–
C=CC(=O)Nc1cc(Nc2ncc(Cl)c(O[C@@H]3CO[C@H]4[C@@H]3OC[C@H]4O)n2)ccc1N1CCOCC1	–	–	–	–	–	1.6 nM	–
C=CC(=O)Nc1cc(Nc2ncc(Cl)c(O[C@@H]3CO[C@H]4[C@@H]3OC[C@H]4O)n2)ccc1N(C)CCN(C)C	133 nM	149 nM	15.2 nM	24.9 nM	102 nM	–	half-life [9]: 1.02 h; bioavailability [10]: 12.4%; AUC(0-inf) [11]: 280 ng·h/mL; Cmax [12]: 79.1 ng/mL; half-life [13]: 0.8 h; Cmax [14]: 440 ng/mL; AUC(0-inf) [15]: 105 ng·h/mL; half-life at […] [16]: 2 h; CL [17]: 299.15%
C=CC(=O)Nc1cc(Nc2ncc(Cl)c(O[C@@H]3CO[C@H]4[C@@H]3OC[C@H]4OC(C)C)n2)ccc1N(C)CCN(C)C	336 nM	166 nM	44 nM	179 nM	205 nM	1.3 nM	–
C#CCCN(C)CCN(C)c1ccc(Nc2ncc(Cl)c(O[C@@H]3CO[C@H]4[C@@H]3OC[C@H]4OC)n2)cc1NC(=O)C=C	–	–	–	–	–	1.7 nM	–
C=CC(=O)Nc1cc(Nc2ncc(Cl)c(O[C@@H]3CO[C@H]4[C@@H]3OC[C@H]4O)n2)ccc1N1C[C@H]2C[C@@H]1CN2C	–	–	–	–	–	1.5 nM	–
C=CC(=O)Nc1cc(Nc2ncc(Cl)c(O[C@@H]3CO[C@H]4[C@@H]3OC[C@H]4O)n2)ccc1N1CCC(N(C)C)C1 (stereo partly drawn)	–	–	–	–	–	1.9 nM	–

From ChEMBL document CHEMBL5137068, “Discovery of Hexahydrofuro[3,2-b]furans as New Kinase-Selective and Orally Bioavailable JAK3 Inhibitors for the Treatment of Leukemia Harboring a JAK3 Activating Mutant” (J Med Chem, 2022)
